The results in this text go back to patent US6534035B1, “Methods of inhibiting clot formation” (President and Fellows of Harvard College, priority 1998, dated 2003).

SMILES strings stand for the structures. Peptide text beside a SMILES is read from it. * marks the point of attachment. Biotin = O=C1N[C@H]2[C@H](CS[C@H]2CCCCC(=O)*)N1

Common to all, as to assay type: biochemical
One assay deals with T1, human plasma FXIII (Homo sapiens, UniProt P00488).
T1 construct: purchased American Diagnostica; host or cells: purified from human plasma
T1 sequence (P00488 39-732 limits assumed): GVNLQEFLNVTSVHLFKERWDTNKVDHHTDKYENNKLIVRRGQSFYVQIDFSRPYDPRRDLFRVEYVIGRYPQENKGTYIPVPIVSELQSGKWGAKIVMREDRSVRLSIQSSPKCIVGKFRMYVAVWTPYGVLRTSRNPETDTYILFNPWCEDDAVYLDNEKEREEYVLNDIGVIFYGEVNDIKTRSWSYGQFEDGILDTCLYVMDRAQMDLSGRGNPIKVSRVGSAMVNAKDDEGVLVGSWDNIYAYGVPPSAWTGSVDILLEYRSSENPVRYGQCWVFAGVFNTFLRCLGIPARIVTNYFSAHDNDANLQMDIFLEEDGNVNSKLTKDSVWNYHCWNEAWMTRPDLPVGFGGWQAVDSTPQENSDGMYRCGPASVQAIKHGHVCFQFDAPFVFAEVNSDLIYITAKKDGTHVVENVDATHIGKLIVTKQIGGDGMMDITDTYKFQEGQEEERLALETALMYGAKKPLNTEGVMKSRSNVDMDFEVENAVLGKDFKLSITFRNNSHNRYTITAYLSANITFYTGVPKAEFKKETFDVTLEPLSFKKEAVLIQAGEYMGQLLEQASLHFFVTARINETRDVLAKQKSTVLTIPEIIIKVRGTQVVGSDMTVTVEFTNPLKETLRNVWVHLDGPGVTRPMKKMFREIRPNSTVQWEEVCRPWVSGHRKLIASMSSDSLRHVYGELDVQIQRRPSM
Briefly: Crosslinking of α2AP13-24 into fibrin by plasma FXIII in FXIII-free fibrinogen. The protocol: Fibrin clots (50 μl) were prepared in duplicate by mixing FXIII-free fibrinogen (2 mg/ml final), α2AP13-24 (SEQ ID NO:2; 0.5 mM final), CaCl2 (2 mM final), human plasma FXIII (100 nM/L final) and guinea pig tissue transglutaminase (100 nM/L final) and thrombin (1 U/ml final) and incubating at 37° C. for 2 hours. The crosslinking of α2AP13-24 was detected as described above.

In assay [1] the target is T2, FXIIIa (Homo sapiens, UniProt P00488).
T2 construct: purchased American Diagnostica
T2 sequence (P00488 39-732 limits assumed): T1 sequence (P00488 39-732 limits assumed)
Briefly: Dose-dependent crosslinking of α2AP13-24 into fibrin clots. The conditions noted are these: fibrin clots, compared to control clots. The protocol:
Experiments were performed to determine how long FXIIIa in clots could crosslink various substrates such as human ^125I -α2AP, α2AP13-24 (SEQ ID NO:2), and 5-(biotinamido)pentylamine, into fibrin. In a typical experiment, clots were prepared (50 μl final volume) in duplicate by combining fibrinogen (2 mg/ml final), CaCl2 (2 mM final), buffer (Tris-buffered saline pH 7.4) and thrombin (1 U/ml) and incubating at 37° C. Synchronous with the addition of thrombin, or up to 240 minutes afterwards, the FXIIIa substrates 5-(biotinamido)pentylamine (0.5 mM final), ^125I -α2AP (70 μg/ml final), and α2AP13-24 (0 to 1 mM final) were mixed and added to the clot. […] Crosslinked ^125I-α2AP was detected and quantitated by phosphorimaging. Samples containing crosslinked α2AP13-24 and pentylamine substrates were electroblotted to PVDF membranes and detected by ^125I-streptavidin followed by phosphorimaging or by streptavidin-peroxidase followed by the developing agents 5-bromo-4-chloro-3-indolyl phosphate-nitro blue tetrazolium using methods known in the art. In experiments examining the effect of specific amino acid residues on the crosslinking of the α2AP13-24 peptide (SEQ ID NO:2) to fibrin, crosslinking was detected by immunoblotting with an anti-peptide antibody directed against this epitope followed by ^125I-protein A and phosphorimaging. […]

Assay [2] concerns the target T2, FXIIIa. Briefly: FXIIIa catalytic half-life: crosslinking of substrates into fibrin clots of various ages. The conditions noted are these: substrate added to 2 or 4 hour old clots. The protocol: Experiments were performed to determine how long FXIIIa in clots could crosslink various substrates such as human ^125I -α2AP, α2AP13-24 (SEQ ID NO:2), and 5-(biotinamido)pentylamine, into fibrin. In a typical experiment, clots were prepared (50 μl final volume) in duplicate by combining fibrinogen (2 mg/ml final), CaCl2 (2 mM final), buffer (Tris-buffered saline pH 7.4) and thrombin (1 U/ml) and incubating at 37° C. Synchronous with the addition of thrombin, or up to 240 minutes afterwards, the FXIIIa substrates 5-(biotinamido)pentylamine (0.5 mM final), ^125I -α2AP (70 μg/ml final), and α2AP13-24 (0 to 1 mM final) were mixed and added to the clot. In one set of control samples, FXIIIa was inhibited with iodoacetamide (10 mg/ml) prior to the addition of substrate; to another set, no substrate was added. After 2 hours of incubation at 37° C., iodoacetamide (10 mg/ml) was added to stop the reaction. The tubes were then centrifuged at 14,000 rpm for 2 minutes, washed and compressed in 1 ml saline to remove unbound proteins, and centrifuged again at 14,000 rpm for 2 minutes. After removal of the supernatant, the clots were solubilized in 100 μL of 9M urea, pH 9.0 at 37° C. for 60 minutes. Then 100 μl of SDS reducing sample buffer was added and the clots were placed at 85° C. for 30 minutes until fully solubilized. The samples were examined by SDS-PAGE. Crosslinked ^125I-α2AP was detected and quantitated by phosphorimaging. Samples containing crosslinked α2AP13-24 and pentylamine substrates were electroblotted to PVDF membranes and detected by ^125I-streptavidin followed by phosphorimaging or by streptavidin-peroxidase followed by the developing agents 5-bromo-4-chloro-3-indolyl phosphate-nitro blue tetrazolium using methods known in the art. In experiments examining the effect of specific amino acid residues on the crosslinking of the α2AP13-24 peptide (SEQ ID NO:2) to fibrin, crosslinking was detected by immunoblotting with an anti-peptide antibody directed against this epitope followed by ^125I-protein A and phosphorimaging. […]

For assay [3], the target named is T3, factor XIIIa-mediated crosslinking of α2AP to fibrin (Homo sapiens, UniProt P00488).
T3 construct: from tissue; host or cells: human plasma clotted with thrombin and calcium
T3 sequence (P00488 39-732 limits assumed): T1 sequence (P00488 39-732 limits assumed)
Briefly: Inhibition of α2AP-fibrin crosslinking in plasma clots by α2AP polypeptide (immunoblot). The procedure:
To inhibit the crosslinking of α2AP to fibrin, a polypeptide spanning the crosslinking site on the amino terminus of α2AP (SEQ ID NO:2) was synthesized. The purity of the polypeptide was analyzed by high performance liquid chromatography, and its composition was verified by amino acid analysis on a Waters Picotag system. The α2AP polypeptide was then solubilized in 20 mM Tris-HCl and the pH was adjusted to 7.0. Various concentrations of polypeptide (7.5 μl, 0-5 mM final) were mixed with 20 μl of plasma, 1.25 μl of calcium chloride (0.4 mM), and 1.25 μof thrombin (10.0 units/ml) and clotted for 90 minutes at 37° C. as described above. The clots were solubilized and analyzed by immunoblotting as described above.
For orientation: In western blotting, separated proteins are transferred to a membrane and probed.

On to `CC(C)C[C@H](NC(=O)[C@H](CC(C)C)NC(=O)[C@@H](NC(=O)[C@H](CC(C)C)NC(=O)[C@@H]1CCCN1C(=O)[C@H](CO)NC(=O)[C@@H](NC(=O)[C@H](CCC(N)=O)NC(=O)[C@H](CCC(=O)O)NC(=O)[C@H](CCC(N)=O)NC(=O)[C@@H](N)CC(N)=O)C(C)C)[C@@H](C)O)C(=O)N[C@@H](CCCCNC(=O)CCCC[C@@H]1SC[C@@H]2NC(=O)N[C@@H]21)C(=O)O` [α2AP13-24, NQEQVSPLTLLK] (H-NQEQVSPLTLLK(Biotin)-OH), for which the “crosslinking of peptide to fibrin” value at human plasma FXIII (equivalent amount of purified exogenous FXIIIa added to FXIIIa-deficient fibrinogen) was “significantly more crosslinking”; on human plasma FXIII (purified FXIIIa-deficient fibrinogen, no enzyme added), “little, if any, significant crosslinking”. The “lowest concentration at which crosslinking is seen” value on FXIIIa [1] was found to be 1.3 µM. For the same compound, the “residual FXIIIa crosslinking of substrate” value at FXIIIa [2] is on record as “little residual FXIIIa crosslinking”. In addition, the α2AP-fibrin crosslinking entry in assay [3] (peptide concentrations of 1.5 mM and 3.0 mM) is given as “little α2AP crosslinking was visible”. Further, the “formation of fibrin γ-γ crosslinks” value in assay [3] (plasma clots formed with α2AP polypeptide) is “no apparent effect”. Moreover, the “peptide concentration giving progressively less α2AP-fibrin crosslinking” value in assay [3] (plasma clots, 90 minutes at 37° C.) is reported as not below 0.38 mM.
